Test results taken from patent US12227490B2, “Cereblon binding compounds, compositions thereof, and methods of treatment therewith” (Celgene Corporation, priority 2020, dated 2025).
Counter-ions that a name gives are not always drawn.

Target: T1, AR (androgen receptor) protein in VCaP cells (Homo sapiens, UniProt P10275)
T1 construct: endogenous in cells; host or cells: VCaP cells
T1 sequence (P10275 1-920): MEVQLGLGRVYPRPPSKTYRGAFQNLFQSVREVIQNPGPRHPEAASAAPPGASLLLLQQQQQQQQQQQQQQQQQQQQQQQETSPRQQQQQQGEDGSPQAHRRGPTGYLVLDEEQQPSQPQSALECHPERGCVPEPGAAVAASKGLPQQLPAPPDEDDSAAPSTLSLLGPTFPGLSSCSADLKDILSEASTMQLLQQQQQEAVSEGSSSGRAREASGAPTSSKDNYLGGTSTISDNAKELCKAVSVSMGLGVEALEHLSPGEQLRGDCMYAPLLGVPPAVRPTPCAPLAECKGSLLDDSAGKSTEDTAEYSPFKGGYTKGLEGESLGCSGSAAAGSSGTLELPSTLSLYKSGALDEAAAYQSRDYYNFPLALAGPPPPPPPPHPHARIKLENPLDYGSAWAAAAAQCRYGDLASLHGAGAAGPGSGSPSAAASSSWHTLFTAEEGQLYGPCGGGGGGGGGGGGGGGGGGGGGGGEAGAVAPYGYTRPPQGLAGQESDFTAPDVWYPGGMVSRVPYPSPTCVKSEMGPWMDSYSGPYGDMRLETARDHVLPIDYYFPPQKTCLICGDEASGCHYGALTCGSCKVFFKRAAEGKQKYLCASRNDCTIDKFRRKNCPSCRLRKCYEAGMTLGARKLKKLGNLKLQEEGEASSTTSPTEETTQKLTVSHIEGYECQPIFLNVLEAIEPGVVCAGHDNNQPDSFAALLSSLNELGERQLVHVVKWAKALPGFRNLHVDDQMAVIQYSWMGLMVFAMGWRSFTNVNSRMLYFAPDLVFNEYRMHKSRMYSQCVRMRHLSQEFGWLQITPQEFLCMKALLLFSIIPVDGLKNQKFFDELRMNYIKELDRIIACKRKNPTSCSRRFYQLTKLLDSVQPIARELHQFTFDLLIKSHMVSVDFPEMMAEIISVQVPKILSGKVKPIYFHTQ
Assay: VCAP AR Degradation Assay
Type: cell-based
Conditions: 24 h, AR ELISA; for DC50: concentration of compound when AR level = 50% of DMSO control; for remaining activity at up to 5 µM: top concentration 5 μM, read-out: Y (lowest measured AR level normalized to DMSO control, AR degradation efficiency)
Method: VCAP AR Degradation Assay. Test compounds were pre-dispensed into a Corning CellBind 96-well clear bottom plate (Cat #3300) using an acoustic dispenser to make a 10-point concentration series at 1:3 dilution for each compound. The final top concentration of each compound was 5 μM. DMSO at a final concentration of 0.1% was used as a control. VCaP cells cultured in DMEM with 8% fetal bovine serum (FBS) were seeded at 50K cells per well in a 200 μL volume into the compound plate and incubated at 37° C. in a CO2 incubator for 24 h. The medium was carefully removed from the cells and the plate was placed on ice. One hundred μL of ice-cold 1× cell lysis buffer from Cell Signaling Technologies (Cat #9803) was added to each well of the cells and the plate was incubated at 4° C. on a shaker for 1 h. Fifteen μL of cell lysate was used for AR ELISA detection using a PathScan Total Sandwich AR ELISA kit (Cell Signaling Technology, Cat #12580). AR levels in compound-treated wells were normalized to that of DMSO control and expressed as percent of control (PoC) (y). A Four Parameter Logistic Model (Sigmoidal Dose-Response Model) was used to determine the compound's DC50, and EC50, using the following equation: y=(A+((B−A)/(1+((C/x)^D)))) • A=YMin (lowest AR level normalized to DMSO control in response to compound treatment, as determined by curve fit) • B=YMax (maximum AR level as determined by curve fit) • C=EC50 • D=Hill Slope • x=compound concentration • EC50=the concentration of compound when y=(YMax−YMin)/2 • DC50=the concentration of the compound when y=50% of DMSO control (50% AR degradation) • y=AR protein level normalized to DMSO control
The lowest measured AR level normalized to DMSO control in response to compound treatment, termed Y value, was used to characterize the compound-mediated AR degradation efficiency.

Row | SMILES | DC50 | remaining activity at up to 5 µM
1 | C[C@@H]1C[C@H](CCO[C@H]2CC[C@H](N3C(=S)N(c4ccc(C#N)c(C(F)(F)F)c4)C(=O)C3(C)C)CC2)C[C@H](C)N1CC(=O)Nc1cccc2c(C3CCC(=O)NC3=O)nn(C)c12 (stereo partly drawn) [Cmpd 13, 2-((2R,4r,6S)-4-(2-((trans-4-(3-(4-Cyano-3-(trifluoromethyl)phenyl)-5,5-dimethyl-4-oxo-2-thioxoimidazolidin-1-yl)cyclohexyl)oxy)ethyl)-2,6-dimethylpiperidin-1-yl)-N-(3-(2,6-dioxopiperidin-3-yl)-1-methyl-1H-indazol-7-yl)acetamide hydrochloride] | 2 to 5 nM | 0 to 25%
2 | Cn1nc(C2CCC(=O)NC2=O)c2cccc(NC(=O)CN3CCN(CCO[C@H]4CC[C@H](N5C(=S)N(c6ccc(C#N)c(C(F)(F)F)c6)C(=O)C5(C)C)CC4)C[C@@H]3C(F)(F)F)c21 (stereo partly drawn) [Cmpd 14, 2-((R)-4-(2-((trans-4-(3-(4-Cyano-3-(trifluoromethyl)phenyl)-5,5-dimethyl-4-oxo-2-thioxoimidazolidin-1-yl)cyclohexyl)oxy)ethyl)-2-(trifluoromethyl)piperazin-1-yl)-N-(3-(2,6-dioxopiperidin-3-yl)-1-methyl-1H-indazol-7-yl)acetamide hydrochloride] | < 2 nM | 0 to 25%
3 | C[C@@H]1C[C@H](CCO[C@H]2CC[C@H](N3C(=S)N(c4cnc(C#N)c(C(F)(F)F)c4)C(=O)C3(C)C)CC2)C[C@H](C)N1CC(=O)Nc1cccc2c(C3CCC(=O)NC3=O)nn(C)c12 (stereo partly drawn) [Cmpd 15, 2-((2R,4r,6S)-4-(2-(((trans)-4-(3-(6-Cyano-5-(trifluoromethyl)pyridine-3-yl)-5,5-dimethyl-4-oxo-2-thioxoimidazolidin-1-yl)cyclohexyl)oxy)ethyl)-2,6-dimethylpiperidin-1-yl)-N-(3-(2,6-dioxopiperidin-3-yl)-1-methyl-1H-indazol-7-yl)acetamide] | < 2 nM | 0 to 25%
4 | C[C@@H]1C[C@@H](CCO[C@H]2CC[C@H](N3C(=S)N(c4cnc(C#N)c(C(F)(F)F)c4)C(=O)C3(C)C)CC2)C[C@H](C)N1CC(=O)Nc1cccc2c(C3CCC(=O)NC3=O)nn(C)c12 (stereo partly drawn) [Cmpd 16, 2-((2R,4s,6S)-4-(2-(((trans)-4-(3-(6-Cyano-5-(trifluoromethyl)pyridin-3-yl)-5,5-dimethyl-4-oxo-2-thioxoimidazolidin-1-yl)cyclohexyl)oxy)ethyl)-2,6-dimethylpiperidin-1-yl)-N-(3-(2,6-dioxopiperidin-3-yl)-1-methyl-1H-indazol-7-yl)acetamide] | < 2 nM | 0 to 25%
5 | Cn1nc(C2CCC(=O)NC2=O)c2cccc(NC(=O)CN3CCN(CCC[C@H]4CC[C@H](N5C(=S)N(c6cnc(C#N)c(C(F)(F)F)c6)C(=O)C5(C)C)CC4)C[C@@H]3C(F)(F)F)c21 (stereo partly drawn) [Cmpd 17, 2-((R)-4-(3-((trans)-4-(3-(6-Cyano-5-(trifluoromethyl)pyridin-3-yl)-5,5-dimethyl-4-oxo-2-thioxoimidazolidin-1-yl)cyclohexyl)propyl)-2-(trifluoromethyl)piperazin-1-yl)-N-(3-(2,6-dioxopiperidin-3-yl)-1-methyl-1H-indazol-7-yl)acetamide] | 2 to 5 nM | 0 to 25%
6 | Cn1nc(C2CCC(=O)NC2=O)c2cccc(NC(=O)CN3CCN(CCC[C@H]4CC[C@H](N5C(=S)N(c6ccc(C#N)c(C(F)(F)F)c6)C(=O)C5(C)C)CC4)C[C@@H]3C(F)(F)F)c21 (stereo partly drawn) [Cmpd 18, 2-((R)-4-(3-((trans)-4-(3-(4-Cyano-3-(trifluoromethyl)phenyl)-5,5-dimethyl-4-oxo-2-thioxoimidazolidin-1-yl)cyclohexyl)propyl)-2-(trifluoromethyl)piperazin-1-yl)-N-(3-(2,6-dioxopiperidin-3-yl)-1-methyl-1H-indazol-7-yl)acetamide] | 5 to 20 nM | 25 to 30%
7 | C[C@@H]1CN(CCCC[C@H]2CC[C@H](N3C(=S)N(c4ccc(C#N)c(C(F)(F)F)c4)C(=O)C3(C)C)CC2)C[C@H](C)N1CC(=O)Nc1cccc2c(C3CCC(=O)NC3=O)nn(C)c12 (stereo partly drawn) [Cmpd 19, 2-((2S,6R)-4-(4-((trans)-4-(3-(4-Cyano-3-(trifluoromethyl)phenyl)-5,5-dimethyl-4-oxo-2-thioxoimidazolidin-1-yl)cyclohexyl)butyl)-2,6-dimethylpiperazin-1-yl)-N-(3-(2,6-dioxopiperidin-3-yl)-1-methyl-1H-indazol-7-yl)acetamide] | 2 to 5 nM | 0 to 25%
8 | Cn1nc(C2CCC(=O)NC2=O)c2cccc(NC(=O)CN3CCN(CCCO[C@H]4CC[C@H](N5C(=S)N(c6cnc(C#N)c(C(F)(F)F)c6)C(=O)C5(C)C)CC4)C[C@@H]3C(F)(F)F)c21 (stereo partly drawn) [Cmpd 20, 2-((R)-4-(3-(((trans)-4-(3-(6-Cyano-5-(trifluoromethyl)pyridin-3-yl)-5,5-dimethyl-4-oxo-2-thioxoimidazolidin-1-yl)cyclohexyl)oxy)propyl)-2-(trifluoromethyl)piperazin-1-yl)-N-(3-(2,6-dioxopiperidin-3-yl)-1-methyl-1H-indazol-7-yl)acetamide] | 2 to 5 nM | 0 to 25%
9 | Cn1nc(C2CCC(=O)NC2=O)c2cccc(NC(=O)CN3CCN(CCCO[C@H]4CC[C@H](N5C(=S)N(c6ccc(C#N)c(C(F)(F)F)c6)C(=O)C5(C)C)CC4)C[C@@H]3C(F)(F)F)c21 (stereo partly drawn) [Cmpd 21, 2-((R)-4-(3-(((trans)-4-(3-(4-Cyano-3-(trifluoromethyl)phenyl)-5,5-dimethyl-4-oxo-2-thioxoimidazolidin-1-yl)cyclohexyl)oxy)propyl)-2-(trifluoromethyl)piperazin-1-yl)-N-(3-(2,6-dioxopiperidin-3-yl)-1-methyl-1H-indazol-7-yl)acetamide] | < 2 nM | 0 to 25%
10 | Cn1nc(C2CCC(=O)NC2=O)c2cccc(NC(=O)CN3CCN(CCO[C@H]4CC[C@H](N5C(=S)N(c6cnc(C#N)c(C(F)(F)F)c6)C(=O)C5(C)C)CC4)C[C@@H]3C(F)(F)F)c21 (stereo partly drawn) [Cmpd 22, 2-((R)-4-(2-(((trans)-4-(3-(6-Cyano-5-(trifluoromethyl)pyridin-3-yl)-5,5-dimethyl-4-oxo-2-thioxoimidazolidin-1-yl)cyclohexyl)oxy)ethyl)-2-(trifluoromethyl)piperazin-1-yl)-N-(3-(2,6-dioxopiperidin-3-yl)-1-methyl-1H-indazol-7-yl)acetamide] | < 2 nM | 0 to 25%
11 | C[C@@H]1C[C@H](OCCC[C@H]2CC[C@H](N3C(=S)N(c4ccc(C#N)c(C(F)(F)F)c4)C(=O)C3(C)C)CC2)C[C@H](C)N1CC(=O)Nc1cccc2c(C3CCC(=O)NC3=O)nn(C)c12 (stereo partly drawn) [Cmpd 23, 2-((2R,4r,6S)-4-(3-((trans)-4-(3-(4-Cyano-3-(trifluoromethyl)phenyl)-5,5-dimethyl-4-oxo-2-thioxoimidazolidin-1-yl)cyclohexyl)propoxy)-2,6-dimethylpiperidin-1-yl)-N-(3-(2,6-dioxopiperidin-3-yl)-1-methyl-1H-indazol-7-yl)acetamide] | 20 to 100 nM | 0 to 25%
